From article PMC11648681, “Development of machine learning models for the prediction of the skin sensitization potential of cosmetic compounds” (PeerJ, 2024)
Several values for one entry are separate records, joined by “and”; a condition that tells them apart may be missing. Equal values may be shown once. Read-outs that look alike come from different tables or passages of the source.

Assays:
[1] = CCK-8 cell viability of THP-1 cells after 48 h compound treatment in HaCaT/THP-1 co-culture; format: cell-based, human; conditions: human; for IC50 at 48 h: THP-1 cells, 48 h treatment, CCK-8, range 1,000 to 3.9 μg/mL, read-out: IC50 (cytotoxicity)
Description: (§1) The co-culture system was set up according to the following described method. […] THP-1 cells were collected, centrifuged, and re-suspended in fresh RPMI-1640 medium supplemented with 10% FBS at 2 × 10^6 cells/mL. Then cells are distributed into HaCaT-seeded 96 wells plate with 80 μL (1.6 × 10^5 cells/well).
(§2) The compounds listed in Table 1 were dissolved in DMSO to create stock solutions with a concentration of 500 mg/mL. Eleven concentrations were subsequently prepared using two-fold serial dilutions. These stock solutions were then further diluted 250-fold in RPMI-1640 + 10% FBS medium. Finally, 80 μL of the prepared solutions were added 1:1 to the treated 96-well plates and incubated for 48 h at 37 °C and 5% CO2.
(§3) After 48 h of treatment, the treated cells were collected 100 μL cells per well. The supernatant medium was added 10 μL of CCK-8 (Life-iLab, Shanghai, China) solution to each well and incubated the plate in the incubator for 2–4 h. THP-1 cell viability was determined using standard calculation methods.
(§4) The cytotoxicity of 15 test compounds listed in Table 1 was assessed using THP-1 cells across a concentration range of 1,000 to 3.9 μg/mL. Cell viability was assessed after 48 h of treatment using the CCK-8 assay.

[2] = test system: THP-1 cells; experiment: as above; format: cell-based, human; conditions: 48 h
Description: as §1, §2, §3, §4

[3] = THP-1 cells in co-culture with HaCaT cells, 48 h, THP-1, individual replicate values
[4] = THP-1 cells in co-culture with HaCaT cells
[5] = THP-1 cells in co-culture with HaCaT cells, 31.25 μg/mL, 48 h, THP-1, individual replicate values, read-out: Cell viability
[6] = 1.95312 μg/mL, THP-1, individual replicate values
[7] = 3.90625 μg/mL, THP-1, individual replicate values
[8] = 7.8125 μg/mL, THP-1, individual replicate values
[9] = 15.625 μg/mL, THP-1, individual replicate values
[10] = 31.25 μg/mL, THP-1, individual replicate values
[11] = 62.5 μg/mL, THP-1, individual replicate values
[12] = 125 μg/mL, THP-1, individual replicate values
[13] = 250 μg/mL, THP-1, individual replicate values
[14] = 500 μg/mL, THP-1, individual replicate values
[15] = 1000 μg/mL, THP-1, individual replicate values
[16] = 0.976563 μg/mL, THP-1, individual replicate values

For `OCC(O)CO` [glycerol, Glycerol], the viability at 48 h, 31.25 μg/mL ([1]; Cell viability) was 105%, the viability at 48 h, 0.976563 μg/mL [1, 3] was 87.7% and the viability at 48 h, 1.95312 μg/mL [1, 3] was 93.5%. For the same molecule, the viability at 48 h, 3.90625 μg/mL [1, 3] was 79.1%, the viability at 48 h, 15.625 μg/mL [1, 3] was 93.7% and the viability at 48 h, 62.5 μg/mL [1, 3] was 110%. The viability at 48 h, 125 μg/mL [1, 3] was 90.6%, the viability at 48 h, 250 μg/mL [1, 3] was 93.5% and the viability at 48 h, 500 μg/mL [1, 3] was 93.4%. The viability at 48 h, 1000 μg/mL [1, 3] was 98.4%, the IC50 at 48 h [1, 4] was over 1000 µg/mL and the Cell viability ([2]; human, 31.25 μg/mL) was 116.476%.
Work on `O=CCc1ccccc1` [phenylacetaldehyde, Phenylacetaldehyde] yielded a viability at 48 h, 0.976563 μg/mL [1, 3] of 84.7%, a viability at 48 h, 1.95312 μg/mL [1, 3] of 85.6% and a viability at 48 h, 3.90625 μg/mL [1, 3] of 84.7%. It also gave a viability at 48 h, 7.8125 μg/mL [1, 3] of 80.6%, a viability at 48 h, 15.625 μg/mL [1, 3] of 74.2% and a viability at 48 h, 31.25 μg/mL [1, 5] of 14.8%. The viability at 48 h, 62.5 μg/mL [1, 3] was 15.8%, the viability at 48 h, 125 μg/mL [1, 3] was 17% and the viability at 48 h, 250 μg/mL [1, 3] was 19.5%. It also gave a viability at 48 h, 500 μg/mL [1, 3] of 21.5%, a viability at 48 h, 1000 μg/mL [1, 3] of 18.6% and a Cell viability [2, 6] of 84.3308%. The Cell viability [2, 7] was 77.9774%, the Cell viability [2, 8] was 74.6917% and the Cell viability [2, 9] was 73.3083%. It also gave a Cell viability [2, 10] of 14.7368%, a Cell viability [2, 11] of 15.5263% and a Cell viability [2, 12] of 17.3609%. It also gave a Cell viability [2, 13] of 19.4737%, a Cell viability [2, 14] of 22.2782% and a Cell viability [2, 15] of 20.8421%. For the same molecule, the “final concentration used (highest concentration that maintained at least 80% cell viability)” value ([2]; THP-1 cells, CCK-8, single (not double) concentration) was 7.8 µg/mL.
Work on `Oc1cccc(O)c1` [resorcinol, Resorcinol] yielded a viability at 48 h, 31.25 μg/mL ([1]; Cell viability) of 81.4%, a viability at 48 h, 0.976563 μg/mL [1, 3] of 86.4% and a viability at 48 h, 3.90625 μg/mL [1, 3] of 99.3%. It also gave a viability at 48 h, 7.8125 μg/mL [1, 3] of 95.8%, a viability at 48 h, 15.625 μg/mL [1, 3] of 86.8% and a viability at 48 h, 62.5 μg/mL [1, 3] of 68%. The viability at 48 h, 125 μg/mL [1, 3] was 66.2%, the viability at 48 h, 250 μg/mL [1, 3] was 59.3% and the viability at 48 h, 500 μg/mL [1, 3] was 56.3%. The viability at 48 h, 1000 μg/mL [1, 3] was 58.1%, the Cell viability [2, 16] was 87.3677% and the Cell viability [2, 6] was 103.314% and 82.4843%. For the same molecule, the Cell viability [2, 7] was 80.4798%, the Cell viability [2, 8] was 98.5964% and the Cell viability [2, 9] was 93.1569%. The Cell viability [2, 11] was 79.0942%, the Cell viability [2, 12] was 70.9013% and the Cell viability [2, 13] was 60.5067%. It also gave a Cell viability [2, 14] of 57.2511%, a Cell viability [2, 15] of 56.1435% and a Cell viability ([2]; human, 31.25 μg/mL) of 84.1435%.
`CC(C)CCCC(C)CCCC(C)CCCCC(C)CCCC(C)CCCC(C)C` (stereo not drawn) [squalane, Squalane] gave a viability at 48 h, 3.90625 μg/mL [1, 3] of 85.4%, a viability at 48 h, 7.8125 μg/mL [1, 3] of 85% and a viability at 48 h, 15.625 μg/mL [1, 3] of 78.7%. The viability at 48 h, 31.25 μg/mL [1, 5] was 89.3%, the viability at 48 h, 62.5 μg/mL [1, 3] was 87.1% and the viability at 48 h, 125 μg/mL [1, 3] was 98%. The viability at 48 h, 250 μg/mL [1, 3] was 83.7%, the viability at 48 h, 500 μg/mL [1, 3] was 82% and the viability at 48 h, 1000 μg/mL [1, 3] was 91.2%. For the same molecule, the IC50 at 48 h [1, 4] was over 1000 µg/mL, the Cell viability [2, 16] was 122.038% and the Cell viability [2, 6] was 117.419%. The Cell viability [2, 7] was 88.2476%, the Cell viability [2, 8] was 84.8% and the Cell viability [2, 9] was 88.8667%. It also gave a Cell viability [2, 10] of 81.4095%, a Cell viability [2, 12] of 94.8381% and a Cell viability [2, 13] of 87.1048%. It also gave a Cell viability [2, 14] of 84.4381% and a Cell viability [2, 15] of 95.019%.
